According to PubChem BioAssay (NCI):
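How tested: cells in 96-well plates exposed to compound for 48 hours at five concentrations. TGI: concentration producing complete growth inhibition.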

Tests used:
Assay in all cases: inhibition of tumour cell growth, NCI panel, 48 h
786-0 renal = system: 786-0 renal
ACHN renal = system: ACHN renal
DU-145 prostate = system: DU-145 prostate
HCT-116 colon = system: HCT-116 colon
HCT-15 colon = system: HCT-15 colon
HS 578T breast = system: HS 578T breast
K-562 leukemia = system: K-562 leukemia
KM12 colon = system: KM12 colon
LOX IMVI melanoma = system: LOX IMVI melanoma
M14 melanoma = system: M14 melanoma
MDA-MB-231 breast = system: MDA-MB-231 breast
MDA-MB-435 = system: MDA-MB-435
RXF 393 renal = system: RXF 393 renal
SK-MEL-28 melanoma = system: SK-MEL-28 melanoma
SK-MEL-5 melanoma = system: SK-MEL-5 melanoma
SK-OV-3 ovarian = system: SK-OV-3 ovarian
SW-620 colon = system: SW-620 colon
UACC-257 melanoma = system: UACC-257 melanoma
UO-31 renal = system: UO-31 renal

SMILES	TGI (786-0 renal) [µM]	TGI (ACHN renal) [µM]	TGI (DU-145 prostate) [µM]	TGI (HCT-116 colon) [µM]	TGI (HCT-15 colon) [µM]	TGI (HS 578T breast) [µM]	TGI (K-562 leukemia) [µM]	TGI (KM12 colon) [µM]	TGI (LOX IMVI melanoma) [µM]	TGI (M14 melanoma) [µM]	TGI (MDA-MB-231 breast) [µM]	TGI (MDA-MB-435) [µM]	TGI (RXF 393 renal) [µM]	TGI (SK-MEL-28 melanoma) [µM]	TGI (SK-MEL-5 melanoma) [µM]	TGI (SK-OV-3 ovarian) [µM]	TGI (SW-620 colon) [µM]	TGI (UACC-257 melanoma) [µM]	TGI (UO-31 renal) [µM]
COCN1C(=O)[C@@H]2CCCN2C(=O)c2ccc([N+](=O)[O-])cc21	> 100	> 100	> 100	> 100	> 100	> 100	> 100	> 100	> 100	> 100	> 100	> 100	> 100	> 100	> 100	> 100	> 100	> 100	> 100
CCOC(=O)c1ccc(N=c2oc3ccc(OC)cc3cc2-c2nc3ccccc3[nH]2)cc1	> 100	> 100	> 100	> 100	> 100	> 100	> 100	> 100	> 100	> 100	> 100	> 100	> 100	> 100	80.4	> 100	> 100	> 100	> 100
Cc1ccc(/C=N/NS(=O)(=O)c2ccc(/C=C3\NC(=O)NC3=O)cc2)cc1	> 100	> 100	> 100	> 100	> 100	81.6	> 100	> 100	> 100	> 100	> 100	> 100	> 100	> 100	> 100	> 100	> 100	> 100	> 100
CN1CCc2cc(N)cc3c2C1Cc1ccc2c(c1-3)OCO2 (stereo unspecified)	99	> 75.5	96.9	> 90.4	> 100	82.2	> 80	> 100	37.2	> 100	> 100	> 100	> 88.2	> 100	49.8	> 100	> 100	> 64.6	84.6
COC(=O)c1ccccc1C1CN=NC12Cc1cc(C)cc(C)c1C2=O (stereo unspecified)	> 100	> 100	> 100	> 100	76.6	> 100	> 100	> 100	> 100	> 100	> 100	> 100	> 100	> 100	> 100	> 100	> 100	> 100	> 100
CC1(O)Oc2ccc3ccccc3c2C=C1C(N)=O (stereo unspecified)	> 100	> 100	> 100	> 100	> 100	> 100	> 100	> 100	> 100	> 100	93.8	> 100	> 100	> 100	> 100	> 100	> 100	> 100	> 100
CC12C(=O)OC(=O)C1(C)C1C=CC2O1 (stereo unspecified)	> 100	> 100	> 100	> 100	> 100	> 100	> 100	> 100	> 100	> 100	> 100	> 100	> 100	> 100	> 100	> 100	> 100	> 100	> 100
O=C(O)C1=NN(c2ccc(S(=O)(=O)O)cc2)C2(C1)SCC(=O)N2c1nc2ccccc2s1 (stereo unspecified)	> 100	> 100	> 100	> 100	> 100	> 100	> 100	> 100	> 100	> 100	> 100	> 100	> 100	> 100	> 100	> 100	> 100	> 100	> 100
COc1cccc(Nc2nc(N)nc(N)c2N=O)c1	70.2	89	36.7	38.2	47	82.4	> 100	> 100	32.6	86.6	> 100	39.9	> 100	69.8	39.1	> 100	> 100	56.9	38.1
CC1=CC(=O)/C(=C/n2c(=S)[nH]c3ccc([N+](=O)[O-])cc32)C(=O)O1	> 100	> 100	> 100	> 100	> 100	> 100	> 100	> 100	> 100	> 100	> 100	> 100	> 100	> 100	> 100	> 100	> 100	> 100	> 100
CCOC(=O)c1cc2cc(C)cc(C(=O)c3ccc([N+](=O)[O-])cc3)c2[nH]1	> 100	> 100	> 100	> 100	> 100	> 100	> 100	> 100	> 100	> 100	> 100	> 100	> 100	> 100	> 100	> 100	> 100	> 100	> 100
CCO/C=C(\C(=O)OC)S(=O)(=O)c1ccc(C)cc1	> 100	> 100	> 100	> 100	> 100	> 100	> 100	> 100	> 100	> 100	> 100	> 100	> 100	> 100	> 100	> 100	> 100	> 100	> 100
COC(=O)/C=C1/OC(c2ccc(C)cc2)=C(Cl)C1=O	27	30.4	32.7	24.7	26.4	68.9	19	30.7	23.7	35.5	33.6	34.9	26.6	30.9	27.9	59.3	28.9	43.1	31.6
Fc1ccc2c3c([nH]c2c1)CCNC3	> 100	> 100	> 100	> 100	> 100	> 100	> 100	> 100	> 100	> 100	> 100	> 100	> 100	> 100	> 100	> 100	> 100	> 100	99.7
O=c1c(=[n+]2ccc(=C([O-])c3ccccc3)cc2)/c(=N/S(=O)(=O)c2ccccc2)c(=O)c2ccccc12	19.5	25.3	26.8	23.5	28.2	18.7	9.98	28.3	9.45	23.9	26.1	3.1	25.2	8.8	4.87	29.2	22	23.9	23.9
O=c1[nH]c2cc([N+](=O)[O-])ccc2nc1/C=C(\O)c1ccc(Cl)cc1	14.4	31.4	23	11.8	28.4	44.8	> 100	40	25.4	28.4	24.7	45.2	11.9	22.9	51.2	43.4	28.9	60.5	86.2
CCOC(=O)c1cc(Br)c(-c2onc(C)c2Br)n1C	86.1	> 100	> 100	41.6	> 100	> 100	> 100	69.5	> 100	> 100	> 100	> 100	28.6	> 100	32.4	59.8	> 100	> 100	> 100
N#CCc1nc(-c2cc3c(ccc4ccccc43)oc2=O)cs1	51.6	79.1	> 100	> 100	> 100	63.4	> 100	> 100	> 100	> 100	39	> 100	74	> 100	> 100	77	> 100	75.7	> 100
CC1C(O)Oc2cc3c(cc2C1c1ccccc1O)OCO3 (stereo unspecified)	> 100	> 100	> 100	35.5	> 100	46.6	46.5	> 100	> 100	> 100	65.4	> 100	48.4	84	98.5	> 100	> 100	> 100	> 100
